Earlier results as cited in PMC7279038, “Antioxidant and Neuroprotective Effects Induced by Cannabidiol and Cannabigerol in Rat CTX-TNA2 Astrocytes and Isolated Cortexes” (International Journal of Molecular Sciences, 2020).

Assays:
[1] = tested on: hypothalamic 5-HT; set-up: method as in PMID 31941059; conditions: cited from earlier work
[2] = tested on: rat hypothalamic neurons; set-up: method as in PMID 31941059; conditions: ex vivo model, hydrogen peroxide; cited from earlier work

In the case of C=C(C)[C@@H]1CCC(C)=C[C@H]1c1c(O)cc(CCCCC)cc1O [CBD, Cannabidiol], the “basal hypothalamic 5-HT levels” value [1] is listed as “stimulate basal hypothalamic 5-HT levels”.

For CCCCCc1cc(O)c(C/C=C(\C)CCC=C(C)C)c(O)c1 [CBG, cannabigerol], the neuroprotection [2] is given as “neuroprotection only at low concentrations”.
